# Measured values: patent EP0565377B1, “Therapeutic agents for use in the treatment of Parkinson's Disease” (Kyowa Hakko Kogyo Co., Ltd., priority 1992, dated 1993)
# Where two headings read alike, the source gives them in different places.
# What was measured:
# [1] = tested on: Haloperidol-Induced Catalepsy; test: Effect on haloperidol-induced catalepsy; assay type: in vivo, male ddY mice; conditions: test compound 10 mg/kg orally; for inhibition in vivo at 10 mg/kg: Mus musculus, po, 1 h, rate of decrease in total score based on control group, read-out: Remission Rate (%); for Number of the Animals Showing Remission: of 5 mice, catalepsy score not more than 4 points; for Total Score: total catalepsy score of 5 mice (25 points at the full)
# Method: The experiment was performed by using several groups of 5-weeks-old male ddY mice (weighing 22 to 24 g, Japan SLC), each group consisting of 5 mice. Haloperidol (Janssen Pharmaceutica) suspended in 0.3% CMC was intraperitoneally administered to each mouse at a dose of 1.0 mg/kg. Test compounds were suspended in 0.3% CMC or in injectable distilled water (Otsuka Pharmaceutical Co., Ltd.) containing Tween 80. L-DOPA (Kyowa Hakko Kogyo Co., Ltd.) and benserazide hydrochloride (Kyowa Hakko Kogyo Co., Ltd.) were suspended in 0.3% CMC. One hour after the haloperidol administration, the test compound suspensions and the control suspension [0.3% CMC or injectable distilled water (Otsuka Pharmaceutical Co., Ltd.) containing Tween 80] containing no test compound were orally administered to separate groups of the mice (0.1 ml per 10 g of body weight). One hour after the administration of the test compound, the forelimbs of each mouse and subsequently the hindlimbs of the same mouse were placed on a 4.5 cm-high, 1.0 cm-wide bar and catalepsy was estimated. All of the test compounds were orally administered at a dose of 10 mg/kg, and L-DOPA (100 mg/kg) and benserazide (25 mg/kg) were intraperitoneally administered together as a control experiment. The catalepsy score and the standard of judgment are shown below.
# The effect of the compounds was evaluated by the total of the catalepsy scores of five mice in each group (25 points at the full). The groups wherein the total score was not more than 20 points were estimated to be effective. The number of the animals showing remission against catalepsy is the number of the mice for which the catalepsy score was not more than 4 points.
# dd-strain male mice = test: Acute toxicity test (minimum lethal dose, oral); assay type: in vivo; conditions: oral administration, mortality seven days after administration, three mice per group
# Method: Test compounds were orally administered to groups of dd-strain male mice weighing 20±1 g, each group consisting of three mice. Seven days after the administration, minimum lethal dose (MLD) of each compound was determined by observing the mortality.
# [2] = tested on: Parkinson's Disease Model in Mouse; test: Effect on locomotor activity of Parkinson's disease model in mouse (MPTP-treated mice, Automex-II horizontal activity); assay type: in vivo, male C57BL/6 mice; conditions: Table 3-5, test compound 40 mg/kg orally, normal control 2252 ±210.1, MPTP control 18 ± 8.4
# Method: 1-Methyl-4-phenyl-1,2,3,6-tetrahydropyridine (MPTP) causes symptoms of Parkinson's disease in humans [Science, 219, 979 (1983)]. It is reported that an experimental Parkinson's disease model was obtained by administering MPTP to mice [Science, 224, 1451 (1984)]. If a compound is effective on the experimental Parkinson's disease model in mouse, the compound can be expected to have a therapeutic effect on Parkinson's disease.
# The experiment was performed by using several groups of 7-weeks-old male C57BL/6 mice (weighing 20 to 21 g, Japan SLC), each group consisting of 8 mice. MPTP (Aldrich Chemical Co., Inc.) dissolved in a physiological saline solution (Otsuka Pharmaceutical Co., Ltd.) was intraperitoneally administered to each mouse once a day for five consecutive days at a dose of 30 mg/kg. A test compound was suspended in injectable distilled water (Otsuka Phamaceutical Co., Ltd.) containing Tween 80 [polyoxyethylene (20) sorbitan monooleate]. L-DOPA (Kyowa Hakko Kogyo Co., Ltd.) was suspended in 0.3% CMC (sodium carboxylmethylcellulose). Thirty minutes after the final MPTP administration, the test compound suspensions and the control suspension [injectable distilled water (Otsuka Pharmaceutical Co., Ltd.) containing Tween 80] containing no test compound were orally administered to separate groups of the mice (0.1 ml per 10 g of body weight). The amount of active movements (horizontal activity) of each mouse was measured by using Automex-II (Columbus Instruments International Corp.) for the period of 30 minutes starting 30 minutes after the administration of the test compound. The effect of the compounds was evaluated by comparing the average counts of the active movements of the test compound-administered groups with those of the control groups. A significant difference test was performed by using Student's t-test.
# [3] = Table 4-2, 0.3% Tween 80 control 25
SMILES,inhibition in vivo at 10 mg/kg ([1]; Table 4-1) [%],Number of the Animals Showing Remission ([1]; Table 4-1),"Total Score ([1]; Table 4-1, 0.3% CMC control 25) [points]",MLD (dd-strain male mice) [mg/kg],inhibition in vivo at 10 mg/kg ([1]; Table 4-2) [%],Number of the Animals Showing Remission ([1]; Table 4-2),"Total Score [1, 3] [points]",Amount of Active Movements (average count ± S.E.M) [2] [count]
"CCCn1c(=O)c2[nH]c(/C=C/c3ccc4c(c3)OCCO4)nc2n(CCC)c1=O [Compound 16, (E)-8-[2-(1,4-benzodioxan-6-yl)vinyl]-1,3-dipropylxanthine]",20,4,20,> 300,–,–,–,–
"CCCn1c(=O)c2nc(/C=C/c3ccc(OC)c(OC)c3OC)[nH]c2n(CCC)c1=O [Compound 20, (E)-1,3-dipropyl-8-(2,3,4-trimethoxystyryl)xanthine]",24,3,19,> 300,–,–,–,–
"CCCOc1ccc(/C=C/c2nc3c(c(=O)n(CCC)c(=O)n3CCC)n2C)cc1 [Compound 50, (E)-7-methyl-8-(4-propoxystyryl)-1,3-dipropylxanthine]",–,–,–,> 100,24,3,19,–
"CCCCn1c(=O)c2c(nc(/C=C/c3cc(OC)c(OC)c(OC)c3)n2C)n(CCCC)c1=O [Compound 8, (E)-1,3-dibutyl-7-methyl-8-(3,4,5-trimethoxystyryl)xanthine]",–,–,–,> 300,–,–,–,43 ± 28.3
"CCCn1c(=O)c2c(nc(/C=C/c3cc(OC)c(OC)cc3OC)n2C)n(CCC)c1=O [Compound 23, (E)-7-methyl-1,3-dipropyl-8-(2,4,5-trimethoxystyryl)xanthine]",28,4,18,> 300,–,–,–,–
"CCCn1c(=O)c2c(nc(/C=C/c3ccc(OC)cc3)n2C)n(CCC)c1=O [Compound 6, (E)-8-(4-methoxystyryl)-7-methyl-1,3-dipropylxanthine]",24,3,19,> 300,–,–,–,–
"CCCn1c(=O)c2[nH]c(/C=C/c3cc(Br)c(OC)c(OC)c3)nc2n(CCC)c1=O [Compound 59, (E)-8-(3-bromo-4,5-dimethoxystyryl)-1,3-dipropylxanthine]",–,–,–,> 300,24,5,19,–
"CCCn1c(=O)c2c(nc(/C=C/c3ccc(OCC)cc3)n2C)n(CCC)c1=O [Compound 48, (E)-8-(4-ethoxystyryl)-7-methyl-1,3-dipropylxanthine]",–,–,–,> 100,76,5,6,–
"CCCn1c(=O)c2c(nc(/C=C/c3ccc(OC)c(C)c3OC)n2C)n(CCC)c1=O [Compound 15, (E)-8-(2,4-dimethoxy-3-methylstyryl)-7-methyl-1,3-dipropylxanthine]",24,4,19,> 300,–,–,–,–
"CCCn1c(=O)c2c(nc(/C=C/c3ccc(OC)cc3OC)n2C)n(CCC)c1=O [Compound 25, (E)-8-(2,4-dimethoxystyryl)-7-methyl-1,3-dipropylxanthine]",–,–,–,> 300,52,5,12,–
"CCCn1c(=O)c2c(nc(/C=C/c3ccc(OC)c(C)c3C)n2C)n(CCC)c1=O [Compound 13, (E)-8-(4-methoxy-2,3-dimethylstyryl)-7-methyl-1,3-dipropylxanthine]",80,5,5,> 300,–,–,–,–
"CCCn1c(=O)c2c(nc(/C=C/c3ccc(O)c(O)c3)n2C)n(CCC)c1=O [Compound 53, (E)-8-(3,4-dihydroxystyryl)-7-methyl-1,3-dipropylxanthine]",–,–,–,> 100,20,4,20,–
"CCCn1c(=O)c2c(nc(/C=C/c3ccc4c(c3)OCO4)n2C)n(CCC)c1=O [Compound 19, (E)-7-methyl-8-(3,4-methylenedioxystyryl)-1,3-dipropylxanthine]",24,3,19,> 300,–,–,–,–
"CCCn1c(=O)c2c(nc(/C=C/c3cc(OC)c(OC)c(OC)c3)n2C)n(CCC)c1=O [Compound 5, (E)-7-methyl-1,3-dipropyl-8-(3,4,5-trimethoxystyryl)xanthine]",28,4,18,> 300,–,–,–,–
"CCCn1c(=O)c2[nH]c(/C=C/c3ccc4c(c3)OCO4)nc2n(CCC)c1=O [Compound 18, (E)-8-(3,4-methylenedioxystyryl)-1,3-dipropylxanthine]",20,4,20,> 300,–,–,–,–
"CCCn1c(=O)c2c(nc(/C=C/c3ccc(C)c(C)c3)n2C)n(CCC)c1=O [Compound 31, (E)-8-(3,4-dimethylstyryl)-7-methyl-1,3-dipropylxanthine]",–,–,–,> 100,28,4,18,–
"C=CCn1c(=O)c2c(nc(/C=C/c3cc(OC)c(OC)c(OC)c3)n2C)n(CC=C)c1=O [Compound 7, (E)-1,3-diallyl-7-methyl-8-(3,4,5-trimethoxystyryl)xanthine]",48,4,13,> 300,–,–,–,–
"CCCn1c(=O)c2[nH]c(/C=C/c3ccc(OC)cc3OC)nc2n(CCC)c1=O [Compound 24, (E)-8-(2,4-dimethoxystyryl)-1,3-dipropylxanthine]",24,4,19,> 100,–,–,–,–
